In PubChem BioAssay (NCI):
“And” between values parts separate entries of the source, which are not always exact repeats. Equal values may be shown once.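 96-well plates; 48 h exposure; 5 concentrations. Endpoints by linear interpolation between flanking doses. Not reached: highest tested concentration assigned. Abbreviation: GI50, concentration required for 50% inhibition of growth. The concentration for full growth arrest is given as TGI.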

Key:
Assay in all cases: DTP human tumour cell line panel, 48 h
[1] = test system: DLD-1 colon
[2] = test system: DMS 273 small cell lung
[3] = test system: HCC-2998 colon
[4] = test system: KM20L2 colon
[5] = test system: LXFL 529 NSCLC
[6] = test system: M19-MEL melanoma
[7] = test system: NCI-H460 lung
[8] = test system: SNB-19 CNS
[9] = test system: SNB-78 CNS
[10] = test system: UACC-62 melanoma
[11] = test system: DMS 114 small cell lung

Row | Compound | TGI [1] [µM] | TGI [2] [µM] | TGI [3] | TGI [4] [µM] | TGI [5] [µM] | TGI [6] [µM] | TGI [7] | TGI [8] | TGI [9] [µM] | TGI [10] | TGI [11] [µM] | GI50 [3] [µM] | GI50 [7] | GI50 [8] [µM] | GI50 [10] [µM] | GI50 [1] [µM] | GI50 [2] [µM] | GI50 [4] [µM] | GI50 [5] [µM] | GI50 [9] [µM]
1 | C[C@]12CC[C@H](O)CC1=CC[C@@H]1C2CC[C@]2(C)C(=O)N(N)C(=O)CC12 (some centres not stated) | > 100 | > 100 | > 100 µM | > 100 | > 100 | > 100 | > 100 µM | > 100 µM | > 100 | > 100 µM |  |  |  |  |  |  |  |  |  | 
2 | COc1cc([C@@H]2OCC3C(c4ccc5c(c4)OCO5)OCC32)cc(OC)c1OC (some centres not stated) | > 100 | > 100 | > 100 µM | > 100 | > 100 | > 100 | > 100 µM | > 100 µM | > 100 |  | > 100 |  |  |  |  |  |  |  |  | 
3 | CNC(=O)C(C)C1CCC2(C)C=CC(=O)C(C)=C2C1O (configuration not stated) | > 100 | > 58.1 | > 100 µM | > 100 |  | > 100 | > 100 µM | > 100 µM | > 100 | > 100 µM | > 100 |  |  |  |  |  |  |  |  | 
4 | Cc1c2cnccc2c(C)c2c1c1ccccc1n2CCCN | 0.847 | 0.619 | 1.83 µM and 0.432 µM | 0.989 |  | 0.915 | 0.335 µM and 0.22 µM | 2.19 µM and 0.781 µM | 2.23 | 1.7 µM and 1.75 µM | 1.02 | 0.23 | 0.113 µM and 0.0472 µM | 0.0945 | 0.517 |  |  |  |  | 
5 | CNS(=O)(=O)NNS(=O)(=O)c1ccc2ccccc2c1 | > 100 | > 100 | > 100 µM | > 100 | > 100 | > 100 | > 100 µM | > 100 µM | > 100 | > 100 µM | > 100 |  |  |  |  |  |  |  |  | 
6 | CC(=O)Nc1ccc(-c2nnc(SCC(=O)Nc3ccc([N+](=O)[O-])cc3)o2)cc1 | 26.4 | 22.6 |  | 28.4 | 20.4 | 26.3 | 29.1 µM |  | 34.3 | 21.5 µM | 14.6 |  |  |  |  |  |  |  |  | 
7 | O=C(Nc1ccc(C2=NCCN2)cc1)c1cncc(C(=O)Nc2ccc(C3=NCCN3)cc2)c1 | > 100 | > 100 | > 100 µM | > 100 |  | > 100 | > 100 µM | > 100 µM | > 100 | > 100 µM | > 100 |  |  |  |  |  |  |  |  | 
8 | O=C1CCC23CC(C=CC=C12)n1c(=O)n(-c2ccccc2)c(=O)n13 (configuration not stated) | > 100 | > 100 | > 100 µM |  |  | > 100 | > 100 µM | > 100 µM | > 100 | > 100 µM | > 100 |  |  |  |  |  |  |  |  | 
9 | CCN(CC)CCC(=O)Nc1ccc2c(c1)C(=O)c1ccc(NC(=O)CCN(CC)CC)cc1C2=O | 10.2 | 3.82 | > 100 µM | 28 | 12 | > 100 | 2.74 µM | 18.6 µM | 48.3 | 22.3 µM | 13 |  |  |  |  |  |  |  |  | 
10 | CC(=O)NC1=C(NCCC(C)C)C(=O)c2ccccc2C1=O | > 50 | > 50 | > 50 µM | > 50 | > 50 | > 50 | > 50 µM | > 50 µM | > 50 | > 50 µM |  |  |  |  |  |  |  |  |  | 
11 | O=C([O-])CC(=O)[O-].O=C([O-])CC(=O)[O-].[K+].[Pd+2] | > 100 | > 100 | > 100 µM | > 100 | > 100 |  | > 100 µM | > 100 µM | > 100 | > 100 µM |  | > 100 | > 100 µM | > 100 | > 100 | > 100 | > 100 | > 100 | > 100 | > 100
